Source: article PMC3979046 (Breast Cancer Research : BCR, 2013)
Where two headings read alike, the source gives them in different places.

What was measured:
[1] = tested on: patients with solid tumors; parameters: method as in PMID 22025163; conditions: cited from earlier work
[2] = tested on: patients with HER2+ solid tumors; conditions: in combination with trastuzumab, true MTD not established
Procedure: This phase 1, multicenter, open-label, nonrandomized, dose-defining study was conducted in accordance with the Declaration of Helsinki and the International Conference on Harmonisation Good Clinical Practice Guidelines, and was approved by relevant regulatory and independent ethics committees including Memorial Sloan-Kettering Cancer Center’s Institutional Review Board, Mofftt Cancer Center’s Quorum Review Institutional Review Board, and The National Research Ethics Service, The Royal Marsden Research Ethics Committee. Patients provided written consent prior to enrolling in the trial. […] Dose finding was based on toxicity probability intervals. In brief, three patients were first dosed at each level and advanced according to the toxicity probability interval; up to another 10 patients (total of 13 patients at a dose level) could be assigned to one dose, in which case up to four DLT events in the dose level of 13 patients would be considered tolerable. […] Correlation of antitumor activity with PI3K pathway activation events (that is, circulating tumor DNA and mutations) was an exploratory objective of this trial.
Patients were evaluated at baseline and throughout the course of the study using physical examinations, vital signs, ophthalmologic examinations, 12-lead electrocardiogram cardiac monitoring, laboratory tests, and Eastern Cooperative Oncology Group performance status.

[3] = tested on: recombinant human AKT1, AKT2 and AKT3; conditions: cited from earlier work
[4] = tested on: cytochrome p450 3A4; conditions: cited from earlier work
[5] = Plasma pharmacokinetics of MK-2206 given with trastuzumab; conditions: for Tmax: human, plasma, oral
[6] = prior phase 1 studies ref 13; cited from earlier work
[7] = tested on: HER3; parameters: method as in PMID 21215704; conditions: via feedback mechanisms ref 11; cited from earlier work
[8] = human, in vivo
[9] = tested on: HER2+ metastatic breast cancer patients refractory to trastuzumab; parameters: method as in PMID 22689807; conditions: phase 3 trial, 296 patients, no chemotherapy ref 21; cited from earlier work

Structure (SMILES)	most significant dose-limiting toxicity (DLT) ([1]; monotherapy ref 13)	maximum tolerable dose (MTD) ([1]; monotherapy, QOD ref 13) [mg]	maximum tolerable dose (MTD), expected ([1]; monotherapy, QW, not established due to early discontinuation ref 13)	maximum tolerated dose (MTD) ([2]; QOD schedule) [mg]	maximum tolerated dose (MTD) ([2]; QW schedule) [mg]	off-target kinase activity [3]	relative potency against AKT isoforms ([3]; recombinant human isoforms ref 12)	metabolizing enzyme [4]	patients with trough level at or above the clinical monotherapy efficacy trough target of 56.8 nM ([5]; 45 mg or 60 mg QOD with trastuzumab)	geometric mean ratio of Cmax (last dose/first dose) ([5]; 200 mg QW, multiple dosing for 21 to 22 days)	Tmax [5] [h]	Tmax ([5]; median time to maximum concentration, 135 mg and 200 mg QW with trastuzumab) [h]	dose proportionality [6]	effect on HER3 [7]	patients achieving the 48-hour target of at least 56.8 nM [8]	median progression-free survival [9] [weeks]
NC1(c2ccc(-c3nc4ccn5c(=O)[nH]nc5c4cc3-c3ccccc3)cc2)CCC1 [MK-2206]	rash	60	less than 250 mg	60	135	little off-target kinase activities	higher potency against recombinant human AKT1 and AKT2 isoforms than AKT3	metabolized by cytochrome p450 3A4	11/11	1.30	4 to 6	4 to 8	no substantial departure from dose proportionality	upregulate HER3	~ 92%	
CS(=O)(=O)CCNCc1ccc(-c2ccc3ncnc(Nc4ccc(OCc5cccc(F)c5)c(Cl)c4)c3c2)o1 [lapatinib]																8.1
